Assay type in all cases: cell-based
The target of one experiment is T1, human LXRα (Homo sapiens, UniProt Q13133).
T1 construct: DNA constructs encoding human LBD domains of human PPARα, PPARγ, of LXRα (pGAL4-PPARα, pGAL4-PPARγ, pGAL4-LXRα); expressed in transfected cells; host or cells: HepG2
T1 sequence (Q13133 209-447 limits assumed): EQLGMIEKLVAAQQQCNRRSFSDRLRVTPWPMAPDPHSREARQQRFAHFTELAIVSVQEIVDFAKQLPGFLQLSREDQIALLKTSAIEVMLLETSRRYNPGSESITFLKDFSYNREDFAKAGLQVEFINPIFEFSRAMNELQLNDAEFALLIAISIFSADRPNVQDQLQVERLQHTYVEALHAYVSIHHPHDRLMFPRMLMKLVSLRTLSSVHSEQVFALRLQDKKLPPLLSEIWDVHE
Put plainly: LXRα luciferase reporter gene assay, inhibition of activation by GW3965 (pGAL4-LXRα / pGL5-UAS 9x) in HepG2 cells. On the procedure:
Bezafibrate, GW7647 and WY14643 are known PPARα ligands. […] GW3965 is known high-affinity LXRα ligand.
Inverse agonistic/antagonistic activities of tested compounds to LXRα receptor activated by the LXRα agonist GW3965(10 µM). […] Negative value indicates inverse agonism.
(§1) In HepG2 cells, luciferase gene reporter assays have been performed with the transiently transfected reporter gene luciferase construct with the UAS yeast binding site interacting with GAL4 protein (pGL5-UAS 9x, Promega). DNA constructs encoding human LBD domains of human PPARα, PPARγ, of LXRα (pGAL4-PPARα, pGAL4-PPARγ, pGAL4-LXRα) have been cotransfected with the reporter construct. For FXR, FXRE-luc construct with FXR response elements upstream of Firefly luciferase has been used together with an expression construct for human FXR for HepG2 cells transfection. HepG2 cells were then treated with compounds of the invention for 24 h.
(In general: In a reporter assay the amount or activity of a reporter protein is the signal.)

The target in the next experiment is T2, human FXR (Homo sapiens, UniProt Q96RI1).
T2 construct: expressed in transfected cells; host or cells: HepG2
T2 sequence (Q96RI1 1-486): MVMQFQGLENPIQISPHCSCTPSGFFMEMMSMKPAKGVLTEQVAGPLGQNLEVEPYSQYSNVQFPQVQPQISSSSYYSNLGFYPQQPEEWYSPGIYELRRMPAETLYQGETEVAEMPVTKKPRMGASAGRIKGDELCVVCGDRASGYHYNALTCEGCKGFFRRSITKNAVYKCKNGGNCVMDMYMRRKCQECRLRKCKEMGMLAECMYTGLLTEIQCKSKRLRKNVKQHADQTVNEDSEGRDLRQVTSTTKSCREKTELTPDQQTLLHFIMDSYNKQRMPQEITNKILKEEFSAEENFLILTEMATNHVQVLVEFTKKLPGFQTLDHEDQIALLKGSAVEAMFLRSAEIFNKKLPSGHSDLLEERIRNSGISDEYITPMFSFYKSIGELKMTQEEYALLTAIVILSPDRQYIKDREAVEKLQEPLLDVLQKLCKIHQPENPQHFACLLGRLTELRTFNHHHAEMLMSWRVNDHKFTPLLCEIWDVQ
Briefly: FXR responsive luciferase reporter gene assay (FXRE-luc + human FXR expression construct) in HepG2 cells. The settings on record: HepG2, 24 h.
Source text: as §1

The target in the next experiment is T3, human PPARγ (Homo sapiens, UniProt P37231).
T3 construct: DNA constructs encoding human LBD domains of human PPARα, PPARγ, of LXRα (pGAL4-PPARα, pGAL4-PPARγ, pGAL4-LXRα); expressed in transfected cells; host or cells: HepG2
T3 sequence (P37231 238-503 limits assumed): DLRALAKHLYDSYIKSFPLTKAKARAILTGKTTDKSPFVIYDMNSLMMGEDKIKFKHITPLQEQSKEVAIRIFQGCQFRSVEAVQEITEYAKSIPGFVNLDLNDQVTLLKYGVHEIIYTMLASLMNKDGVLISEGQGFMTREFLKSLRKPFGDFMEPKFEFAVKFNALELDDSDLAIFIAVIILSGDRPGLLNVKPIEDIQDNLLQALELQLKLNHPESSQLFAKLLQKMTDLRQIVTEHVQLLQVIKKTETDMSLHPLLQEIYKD
Put plainly: PPARγ luciferase reporter gene assay (pGAL4-PPARγ / pGL5-UAS 9x) in HepG2 cells. Particulars: HepG2, 24 h.

In the next experiment the target is T4, human PPARα (Homo sapiens, UniProt Q07869).
T4 construct: DNA constructs encoding human LBD domains of human PPARα, PPARγ, of LXRα (pGAL4-PPARα, pGAL4-PPARγ, pGAL4-LXRα); expressed in transfected cells; host or cells: HepG2
T4 sequence (Q07869 239-466 limits assumed): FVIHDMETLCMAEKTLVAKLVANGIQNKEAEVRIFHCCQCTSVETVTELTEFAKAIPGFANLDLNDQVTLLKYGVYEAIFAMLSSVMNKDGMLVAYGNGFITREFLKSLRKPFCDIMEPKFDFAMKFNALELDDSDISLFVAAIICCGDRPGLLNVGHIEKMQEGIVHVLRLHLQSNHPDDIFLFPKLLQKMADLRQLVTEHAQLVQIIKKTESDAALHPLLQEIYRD
Briefly: PPARα responsive luciferase reporter gene assay (pGAL4-PPARα / pGL5-UAS 9x) in HepG2 cells. Particulars: relative activation to fenofibrate 10 µM (100%), HepG2, 24 h, negative value indicates inverse agonism.
Source text: Bezafibrate, GW7647 and WY14643 are known PPARα ligands. […] GW3965 is known high-affinity LXRα ligand. […]
as §1

The next experiment addresses T5, TGR5 (Homo sapiens, UniProt Q8TDU6).
T5 sequence (Q8TDU6 1-330): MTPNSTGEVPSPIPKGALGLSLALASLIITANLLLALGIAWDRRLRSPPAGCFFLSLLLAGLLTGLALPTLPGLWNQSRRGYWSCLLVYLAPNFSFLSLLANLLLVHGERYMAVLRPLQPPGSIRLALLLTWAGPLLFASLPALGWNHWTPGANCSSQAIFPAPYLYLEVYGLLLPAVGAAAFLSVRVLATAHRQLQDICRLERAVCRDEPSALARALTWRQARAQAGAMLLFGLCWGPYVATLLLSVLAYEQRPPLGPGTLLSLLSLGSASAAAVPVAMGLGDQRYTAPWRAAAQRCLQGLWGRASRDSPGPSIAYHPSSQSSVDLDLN
Briefly: TGR5 luciferase reporter assay. Particulars: relative activation to LCA 10 µM (100%), negative value indicates inverse agonism.

The mark [1] stands for this setting: HepG2, 24 h; read-out: LXRα antagonism.

Drawing on patent EP4583874B1, “MULTITARGET NUCLEAR RECEPTOR LIGANDS BASED ON 2-(4-(QUINOLIN-2-YLOXY)PHENOXY)PROPANOIC ACID AND 2-(4-(QUINOXALIN-2-YLOXY)PHENOXY)PROPANOIC ACID FOR THE TREATMENT OF METABOLIC AND LIVER DISEASES” (CHARLES UNIVERSITY, FACULTY OF PHARMACY IN HRADEC KRALOVE, priority 2022, dated 2024), this text covers inhibition and Emax for 20 compounds.

Where two headings read alike, the source gives them in different places.

For orientation: Emax means the size of the effect at its maximum, as opposed to the concentration needed. As to `C[C@@H](Oc1ccc(Oc2cnc3cc(Cl)ccc3n2)cc1)C(=O)O` [compound 64, (R)-2-(4-((6-Chloroquinoxalin-2-yl)oxy)phenoxy)propanoic acid], the inhibition at 10 µM at human LXRα (HepG2, 24 h, read-out: LXRα antagonism) worked out at 17%. Also, on human FXR, the Emax at 10 µM is 1%.
Turning to `CC(Oc1ccc(NCc2ccc3c(Cl)cc(Cl)cc3n2)cc1)C(=O)O` (stereo not drawn) [compound 84, 2-(4-(((5,7-Dichloroquinolin-2-yl)methyl)amino)phenoxy)propanoic acid], the inhibition at 10 µM at human LXRα (setting [1]) came to 5%. Further, the figures for the Emax at 10 µM on human FXR, at human PPARγ and at human PPARα were -2%, 1% and 0%, respectively.
With `C[C@@H](Oc1ccc(Oc2cnc3ccccc3n2)cc1)C(=O)O` [compound 62], the Emax at 10 µM at human FXR was 7%; at human PPARγ, 2%; at TGR5 it was 43%; on human PPARα, 0%.
For `Cc1cc(C)c2ccc(Oc3ccc(O[C@H](C)C(=O)O)cc3)nc2c1` [compound 45, (R)-2-(4-((5,7-Dimethylquinolin-2-yl)oxy)phenoxy)propanoic acid], the inhibition at 10 µM on human LXRα (setting [1]) came out at 43%. Besides, the Emax at 10 µM turned out to be 7% at human FXR, 17% on human PPARγ and 0% at human PPARα.
On to `CCOC(=O)C(C)Oc1ccc(NCc2ccc3c(Cl)cccc3n2)cc1` (stereo not drawn) [compound 85, Ethyl 2-(4-(((5-chloroquinolin-2-yl)methyl)amino)phenoxy)propanoate], for which the Emax at 10 µM is -1% at human FXR, -6% at human PPARγ, 30% at TGR5 and 1% at human PPARα.
For `C[C@@H](Oc1ccc(Oc2cnc3ccc(I)cc3n2)cc1)C(=O)O` [compound 68, (R)-2-(4-((7-Iodoquinoxalin-2-yl)oxy)phenoxy)propanoic acid], the Emax at 10 µM was -3% on human FXR, 9% at human PPARγ, 11% on TGR5 and 49% at human PPARα.
As to `CCc1ccc2ccc(Oc3ccc(O[C@H](C)C(=O)O)cc3)nc2c1` [compound 44, (R)-2-(4-((7-Ethylquinolin-2-yl)oxy)phenoxy)propanoic acid], the inhibition at 10 µM at human LXRα (setting [1]) is 7%. The Emax at 10 µM was found to be 15% on human FXR, 4% on human PPARγ and 0% at human PPARα.
With `CC(C)(Oc1ccc(Oc2ccc3ccc(Cl)cc3n2)cc1)C(=O)O` [compound 55, 2-(4-((7-Chloroquinolin-2-yl)oxy)phenoxy)-2-methylpropanoic acid], the Emax at 10 µM at human FXR was 0%; at human PPARγ it was -2%; at TGR5 it was -15%; on human PPARα, 1%.
`C[C@@H](Oc1ccc(Oc2ccc3cc(Cl)ccc3n2)cc1)C(=O)O` [compound 36, (R)-2-(4-((6-Chloroquinolin-2-yl)oxy)phenoxy)propanoic acid]: on human LXRα (setting [1]), the inhibition at 10 µM came out at 36%. The Emax at 10 µM at human FXR is 19%; on human PPARγ, 23%; at human PPARα, -5%.
As for `CC(=O)Nc1ccc2ncc(Oc3ccc(OCC(=O)O)cc3)nc2c1` [compound 73, 2-(4-((7-Acetamidoquinoxalin-2-yl)oxy)phenoxy)acetic acid], the Emax at 10 µM on human FXR amounted to 6%; on human PPARγ, 1%; on TGR5, 20%; at human PPARα, 59%.
As for `C[C@@H](Oc1ccc(Oc2ccc3ccc(F)cc3n2)cc1)C(=O)O` [compound 41, (R)-2-(4-((7-Fluoroquinolin-2-yl)oxy)phenoxy)propanoic acid], the results for the Emax at 10 µM on human FXR, on human PPARγ and at human PPARα were 1%, 7% and 1%, respectively.
As for `C[C@@H](Oc1ccc(Oc2ccc3ccc([N+](=O)[O-])cc3n2)cc1)C(=O)O` [compound 50, (R)-2-(4-((7-nitroquinolin-2-yl)oxy)phenoxy)propanoic acid], the figures for the Emax at 10 µM on human FXR and at human PPARα were 0% and 87%, respectively.
With `Cc1ccc2ncc(Oc3ccc(O[C@H](C)C(=O)O)cc3)nc2c1` [compound 66, (R)-2-(4-((7-Methylquinoxalin-2-yl)oxy)phenoxy)propanoic acid], the Emax at 10 µM at human FXR was -3%; at human PPARγ it was 2%; at human PPARα it was 1%.
As for `CCOC(=O)[C@@H](C)Oc1ccc(Oc2ccc3c(Cl)cccc3n2)cc1` [compound 76, Ethyl (R)-2-(4-((5-chloroquinolin-2-yl)oxy)phenoxy)propanoate], the inhibition at 10 µM on human LXRα (setting [1]) came to 51%. Further, the Emax at 10 µM on human FXR is 25%.
For the compound `CC(=O)Nc1ccc2ncc(Oc3ccc(O[C@H](C)C(=O)O)cc3)nc2c1` [compound 69, (R)-2-(4-((7-Acetamidoquinoxalin-2-yl)oxy)phenoxy)propanoic acid], the Emax at 10 µM came to 3% on human FXR, 1% at human PPARγ and 46% at human PPARα.
Turning to `C[C@@H](Oc1ccc(Oc2ccc3c(C(F)(F)F)cccc3n2)cc1)C(=O)O` [compound 43, (R)-2-(4-((5-(Trifluoromethyl)quinolin-2-yl)oxy)phenoxy)propanoic acid], the inhibition at 10 µM at human LXRα (setting [1]) is 48%. The Emax at 10 µM on human FXR is 1%; on human PPARγ, -1%; on human PPARα it was -5%.
As to `CC(Oc1ccc(Nc2cnc3ccc(Cl)cc3n2)cc1)C(=O)O` (stereo not drawn) [compound 80, 2-(4-((7-chloroquinoxalin-2-yl)amino)phenoxy)propanoic acid], the inhibition at 10 µM on human LXRα (setting [1]) amounted to 66%. For the same compound, the Emax at 10 µM on human FXR is -1%; on human PPARα, 0%.
On to `C[C@@H](Oc1ccc(Oc2cnc3ccc(Cl)cc3n2)cc1)C(=O)O` [compound 63, (R)-2-(4-((7-Chloroquinoxalin-2-yl)oxy)phenoxy)propanoic acid], for which the Emax at 10 µM on human FXR is -3%; at human PPARγ it was 2%; on TGR5, 4%; on human PPARα it was 0%.
Turning to `C[C@@H](Oc1ccc(Oc2cnc3ccc(Br)cc3n2)cc1)C(=O)O` [compound 65, (R)-2-(4-((7-Bromoquinoxalin-2-yl)oxy)phenoxy)propanoic acid], the Emax at 10 µM at human FXR is -2%; at human PPARγ, 2%; at TGR5 it was -3%; on human PPARα, 69%.
As to `COc1ccc2ncc(Oc3ccc(O[C@H](C)C(=O)O)cc3)nc2c1` [compound 70, (R)-2-(4-((7-Methoxyquinoxalin-2-yl)oxy)phenoxy)propanoic acid], the Emax at 10 µM is -2% on human FXR, 0% on human PPARγ and 10% at human PPARα.
